Tests used:
Assay type in all cases: in vivo
[1] = tested on: Ipomoea hederacea (IPOHE); assay: Pre-emergence Test, Ipomoea hederacea (IPOHE); settings: 1000 g/ha, evaluated after 13 days
Setaria faberi (SETFA) [2] = assay: Post-emergence Test, Setaria faberi (SETFA); parameters: key to percentage damage caused to the plant, SETFA (five-point scale): 5=81-100%, 4=61-80%, 3=41-60%, 2=21-40%, 1=0-20% damage; settings: evaluated after 13 days
Summary of the method: (§1)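 Spray application at 1000 g/ha unless otherwise stated. Damage was scored 13 days later as 1 (0-20%) to 5 (81-100%).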

[3] = tested on: Amaranthus palmeri (AMAPA); assay: Post-emergence Test, Amaranthus palmeri (AMAPA); parameters: key: 5=81-100%, 4=61-80%, 3=41-60%, 2=21-40%, 1=0-20% damage; settings: evaluated after 13 days
Summary of the method: as §1

Zea mays (ZEAMX) [4] = assay: Post-emergence Test, Zea mays (ZEAMX); parameters: key to percentage damage caused to the plant, ZEAMX (five-point scale): 5=81-100%, 4=61-80%, 3=41-60%, 2=21-40%, 1=0-20% damage; settings: evaluated after 13 days
Summary of the method: as §1

[5] = tested on: Ipomoea hederacea (IPOHE); assay: Post-emergence Test, Ipomoea hederacea (IPOHE); parameters: key to percentage damage caused to the plant, IPOHE (five-point scale): 5=81-100%, 4=61-80%, 3=41-60%, 2=21-40%, 1=0-20% damage; settings: evaluated after 13 days
Summary of the method: as §1

[6] = tested on: Echinochloa crus-galli (ECHCG); assay: Post-emergence Test, Echinochloa crus-galli (ECHCG); parameters: key to percentage damage caused to the plant, ECHCG (five-point scale): 5=81-100%, 4=61-80%, 3=41-60%, 2=21-40%, 1=0-20% damage; settings: evaluated after 13 days
Summary of the method: as §1

Zea mays (ZEAMX) [7] = assay: Pre-emergence Test, Zea mays (ZEAMX); settings: 1000 g/ha, evaluated after 13 days
[8] = tested on: Amaranthus retoflexus (AMARE); assay: Pre-emergence Test, Amaranthus retoflexus (AMARE); settings: 1000 g/ha, evaluated after 13 days
[9] = tested on: Amaranthus palmeri (AMAPA); assay: Pre-emergence Test, Amaranthus palmeri (AMAPA); settings: 1000 g/ha, evaluated after 13 days
[10] = tested on: Echinochloa crus-galli (ECHCG); assay: Pre-emergence Test, Echinochloa crus-galli (ECHCG); settings: 1000 g/ha, evaluated after 13 days
[11] = tested on: Amaranthus retoflexus (AMARE); assay: Post-emergence Test, Amaranthus retoflexus (AMARE); parameters: key to percentage damage caused to the plant, AMARE (five-point scale): 5=81-100%, 4=61-80%, 3=41-60%, 2=21-40%, 1=0-20% damage; settings: evaluated after 13 days
Summary of the method: as §1

Setaria faberi (SETFA) [12] = assay: Pre-emergence Test, Setaria faberi (SETFA); settings: 1000 g/ha, evaluated after 13 days

| Compound | Pre-emergence Test IPOHE, percentage damage caused to the plant (five-point scale) [1] | percentage damage caused to the plant, SETFA (five-point scale) (Setaria faberi (SETFA) [2]; 250 g/Ha) | percentage damage caused to the plant, SETFA (five-point scale) (Setaria faberi (SETFA) [2]; 1000 g/ha) | percentage damage caused to the plant, AMAPA (five-point scale) ([3]; 250 g/Ha) | percentage damage caused to the plant, AMAPA (five-point scale) ([3]; 1000 g/ha) | percentage damage caused to the plant, ZEAMX (five-point scale) (Zea mays (ZEAMX) [4]; 250 g/Ha) | percentage damage caused to the plant, ZEAMX (five-point scale) (Zea mays (ZEAMX) [4]; 1000 g/ha) | percentage damage caused to the plant, IPOHE (five-point scale) ([5]; 250 g/Ha) | percentage damage caused to the plant, IPOHE (five-point scale) ([5]; 1000 g/ha) | percentage damage caused to the plant, ECHCG (five-point scale) ([6]; 250 g/Ha) | percentage damage caused to the plant, ECHCG (five-point scale) ([6]; 1000 g/ha) | Pre-emergence Test ZEAMX, percentage damage caused to the plant (five-point scale) (Zea mays (ZEAMX) [7]) | Pre-emergence Test AMARE, percentage damage caused to the plant (five-point scale) [8] | Pre-emergence Test AMAPA, percentage damage caused to the plant (five-point scale) [9] | Pre-emergence Test ECHCG, percentage damage caused to the plant (five-point scale) [10] | percentage damage caused to the plant, AMARE (five-point scale) ([11]; 250 g/Ha) | percentage damage caused to the plant, AMARE (five-point scale) ([11]; 1000 g/ha) | Pre-emergence Test SETFA, percentage damage caused to the plant (five-point scale) (Setaria faberi (SETFA) [12]) |
| --- | --- | --- | --- | --- | --- | --- | --- | --- | --- | --- | --- | --- | --- | --- | --- | --- | --- | --- |
| CCn1c(Cn2ccc(Cl)n2)cc(=O)c(C(=O)O)c1-c1ccc(F)c(Cl)c1 [Compound 28, 2-(3-chloro-4-fluoro-phenyl)-6-[(3-chloropyrazol-1-yl)methyl]-1-ethyl-4-oxo-pyridine-3-carboxylic acid] | 1 (1=0-20%) | 4 (4=61-80%) | 4 (4=61-80%) | 1 (1=0-20%) | 2 (2=21-40%) | 0 | 4 (4=61-80%) | 4 (4=61-80%) | 1 (1=0-20%) | 3 (3=41-60%) | 4 (4=61-80%) | 0 | 0 | 0 | 5 (5=81-100%) | 1 (1=0-20%) | 0 | 5 (5=81-100%) |
| CCn1c(Cn2ccc(C(F)(F)F)n2)cc(=O)c(C(=O)O)c1-c1ccc(Cl)c(F)c1 [Compound 30, 2-(4-chloro-3-fluoro-phenyl)-1-ethyl-4-oxo-6-[[3-(trifluoromethyl)pyrazol-1-yl]methyl]pyridine-3-carboxylic acid] | 4 (4=61-80%) | 4 (4=61-80%) | 5 (5=81-100%) | 0 | 2 (2=21-40%) | 3 (3=41-60%) | 4 (4=61-80%) | 4 (4=61-80%) | 2 (2=21-40%) | 3 (3=41-60%) | 4 (4=61-80%) | 5 (5=81-100%) | 0 | 1 (1=0-20%) | 5 (5=81-100%) | 1 (1=0-20%) | 4 (4=61-80%) | 5 (5=81-100%) |
| CCn1c(Cn2ccc(C(F)(F)F)n2)cc(=O)c(C(=O)O)c1-c1ccc(F)c(F)c1 [Compound 31, 2-(3,4-difluorophenyl)-1-ethyl-4-oxo-6-[[3-(trifluoromethyl)pyrazol-1-yl]methyl]pyridine-3-carboxylic acid] | 1 (1=0-20%) | 4 (4=61-80%) | 4 (4=61-80%) | 0 | 2 (2=21-40%) | 1 (1=0-20%) | 3 (3=41-60%) | 4 (4=61-80%) | 2 (2=21-40%) | 2 (2=21-40%) | 4 (4=61-80%) | 0 | 0 | 0 | 5 (5=81-100%) | 1 (1=0-20%) | 2 (2=21-40%) | 5 (5=81-100%) |
| CCn1c(Cn2ccc(C(F)(F)F)n2)cc(=O)c(C(=O)O)c1-c1ccc(F)c(Cl)c1 [Compound 32, 2-(3-chloro-4-fluoro-phenyl)-1-ethyl-4-oxo-6-[[3-(trifluoromethyl)pyrazol-1-yl]methyl]pyridine-3-carboxylic acid] | 3 (3=41-60%) | 4 (4=61-80%) | 4 (4=61-80%) | 2 (2=21-40%) | 2 (2=21-40%) | 1 (1=0-20%) | 3 (3=41-60%) | 4 (4=61-80%) | 2 (2=21-40%) | 3 (3=41-60%) | 4 (4=61-80%) | 4 (4=61-80%) | 3 (3=41-60%) | 4 (4=61-80%) | 5 (5=81-100%) | 1 (1=0-20%) | 4 (4=61-80%) | 5 (5=81-100%) |
| Cn1c(Cn2ccc(C(F)(F)F)n2)cc(=O)c(C(=O)O)c1-c1ccc(Cl)c(Cl)c1 [Compound 33, 2-(3,4-dichlorophenyl)-1-methyl-4-oxo-6-[[3-(trifluoromethyl)pyrazol-1-yl]methyl]pyridine-3-carboxylic acid] | 0 | 3 (3=41-60%) | 4 (4=61-80%) | 1 (1=0-20%) | 2 (2=21-40%) | 1 (1=0-20%) | 2 (2=21-40%) | 4 (4=61-80%) | 3 (3=41-60%) | 3 (3=41-60%) | 4 (4=61-80%) | 0 | 0 | 3 (3=41-60%) | 5 (5=81-100%) | 1 (1=0-20%) | 3 (3=41-60%) | 5 (5=81-100%) |
| Cn1c(Cn2ccc(Cl)n2)cc(=O)c(C(=O)O)c1-c1ccc(Cl)c(Cl)c1 [Compound 34, 6-[(3-chloropyrazol-1-yl)methyl]-2-(3,4-dichlorophenyl)-1-methyl-4-oxo-pyridine-3-carboxylic acid] | 0 | 3 (3=41-60%) | 4 (4=61-80%) | 1 (1=0-20%) | 3 (3=41-60%) | 1 (1=0-20%) | 2 (2=21-40%) | 4 (4=61-80%) | 4 (4=61-80%) | 2 (2=21-40%) | 4 (4=61-80%) | 0 | 0 | 1 (1=0-20%) | 5 (5=81-100%) | 1 (1=0-20%) | 1 (1=0-20%) | 5 (5=81-100%) |

Reference: US20250098679A1, “HERBICIDAL PYRIDONE DERIVATIVES” (SYNGENTA CROP PROTECTION AG, priority 2021, published 2025)
